{"source": "patent US12251366B1", "about": "“Sulforaphane-cysteine for wound healing in diabetic subjects” (KUWAIT UNIVERSITY, priority 2024, dated 2025)", "test_system": "TNF-α", "experiment": "Cytokine ELISA, LPS-stimulated peritoneal macrophages (TNF-α)", "format": "cell-based, mouse", "conditions": "LPS-stimulated macrophages, mouse model of type 2 diabetes", "description": "This was exemplified in the current study by the ability of SFN-CYS to inhibit lipopolysaccharide (LPS)-induced peritoneal macrophages and bone marrow-derived macrophages to produce tumor necrosis factor-α (TNF-α) and interlukin-6 (IL-6). TNF-α and IL-6 are two of the major inflammatory mediators that contribute to the pathogenesis of low-grade inflammation; a phenomenon which is commonly associated with the diabetic state. […] Pre-treatment with SFN-Cys inhibited the expression of LPS-induced TNF-α and IL-6 protein at a therapeutic dose of 1.5 μM (FIGS. 1A and 1B).\nThioglycollate-elicited mouse peritoneal macrophages were prepared from C57BL (8-10 weeks old) and cultured in RPMI 1640 with 10% (v/v) FCS Bone marrow-derived macrophages were generated in RPMI medium containing M-CSF (10 ng/mL) according to previously published procedure. For cytokine ELISA assay, cells were seeded at 5×10^5 in 12-well plates, whereas for mRNA expression, the cells were seeded at […]. LPS and used at a dose of 100 ng/mL. Similarly. SFN-Cys was used at a concentration of 1.5 umol/L.\nFor cytokine ELISA, supernatants from cultured macrophages were collected in response to treatment with SFN and SFN-Cys for 6 h. The total TNF-α and TL-6 were measured by enzyme-linked immunosorbent assay (ELISA) using kits (R&D system, USA) according to the manufacturer's protocols.", "data": [{"smiles": "C[S+]([O-])CCCCN=C=S", "note": "(stereo not shown) [SFN, Sulforaphane]", "values": [{"measurement": "anti-inflammatory activity (overall, SFN-Cys compared with SFN)", "result": "exhibited anti-inflammatory and antioxidant activities"}]}]}
